Measurements published in patent US8236792B2, “Substituted pyrrolidine amides as modulators of the histamine H3 receptor” (Janssen Pharmaceutica NV, priority 2008, dated 2012).

Target: T1, cloned human H3 receptors (Homo sapiens, UniProt Q9Y5N1)
T1 construct: expressed in transfected cells
Assay: H3 Receptor Binding (Human) Method 1
Conditions: receptor stably expressed in SK-N-MC cells, free base forms, average of results

T1 sequence (Q9Y5N1 whole entry): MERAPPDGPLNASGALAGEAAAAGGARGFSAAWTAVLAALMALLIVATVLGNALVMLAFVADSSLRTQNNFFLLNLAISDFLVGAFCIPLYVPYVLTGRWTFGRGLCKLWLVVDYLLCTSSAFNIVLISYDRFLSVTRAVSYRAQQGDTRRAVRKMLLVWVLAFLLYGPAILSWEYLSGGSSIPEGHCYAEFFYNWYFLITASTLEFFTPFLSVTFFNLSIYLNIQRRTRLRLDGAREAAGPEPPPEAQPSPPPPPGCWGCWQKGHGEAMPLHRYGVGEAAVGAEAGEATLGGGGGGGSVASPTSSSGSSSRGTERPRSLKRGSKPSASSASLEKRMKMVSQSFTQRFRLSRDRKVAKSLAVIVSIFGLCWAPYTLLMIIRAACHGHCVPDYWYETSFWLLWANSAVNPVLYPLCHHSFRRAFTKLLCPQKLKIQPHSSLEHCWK

SMILES | Ki [nM]
CC(C)(C)OC(=O)N1CC(Oc2cccc(F)c2)C[C@H]1C(=O)N1CCCN(C2CCC2)CC1 (mixture of isomers) [Example 41, (2S)-2-(4-Cyclobutyl-[1,4]diazepane-1-carbonyl)-4-(3-fluoro-phenoxy)-pyrrolidine-1-carboxylic acid tert-butyl ester] | 18
O=C([C@@H]1C[C@@H](Oc2ccc(Cl)c(Cl)c2)CN1)N1CCCN(C2CCC2)CC1 [Example 92, (2S,4R)-2-(4-Cyclobutyl-[1,4]diazepane-1-carbonyl)-4-(3,4-dichloro-phenoxy)-pyrrolidine] | 51
CC(C)(C)OC(=O)N1C[C@H](O)C[C@H]1C(=O)N1CCCN(C2CCC2)CC1 [Example 1, (2S,4R)-2-(4-Cyclobutyl-[1,4]diazepane-1-carbonyl)-4-hydroxy-pyrrolidine-1-carboxylic acid tert-butyl Ester] | 70
CC(C)(C)OC(=O)N1C[C@@H](Oc2cccc(C#N)c2)C[C@@H]1C(=O)N1CCCN(C2CCC2)CC1 [Example 22, (2R,4S)-4-(3-Cyano-phenoxy)-2-(4-cyclobutyl-[1,4]diazepane-1-carbonyl)-pyrrolidine-1-carboxylic acid tert-butyl ester] | 3
CC(C)(C)OC(=O)N1C[C@@H](Oc2ccc(F)cc2)C[C@H]1C(=O)N1CCCN(C2CCC2)CC1 [Example 11, (2S,4S)-2-(4-Cyclobutyl-[1,4]diazepane-1-carbonyl)-4-(4-fluoro-phenoxy)-pyrrolidine-1-carboxylic acid tert-butyl ester] | 37
O=C([C@@H]1C[C@H](Oc2ccc(Cl)c(Cl)c2)CN1)N1CCCN(C2CCC2)CC1 [Example 93, (2S,4S)-2-(4-Cyclobutyl-[1,4]diazepane-1-carbonyl)-4-(3,4-dichloro-phenoxy)-pyrrolidine] | 88
CC(C)O[C@@H]1C[C@@H](C(=O)N2CCCN(C3CCC3)CC2)N(C(=O)OC(C)(C)C)C1 [Example 59, (2S,4R)-2-(4-Cyclobutyl-[1,4]diazepane-1-carbonyl)-4-isopropoxy-pyrrolidine-1-carboxylic acid tert-butyl ester] | 16
CC(C)(C)OC(=O)N1CC(Oc2ccc(Cl)cc2)C[C@H]1C(=O)N1CCCN(C2CCC2)CC1 (stereo partly drawn) [Example 43, (2S)-4-(4-Chloro-phenoxy)-2-(4-cyclobutyl-[1,4]diazepane-1-carbonyl)-pyrrolidine-1-carboxylic acid tert-butyl ester] | 33
CC(C)C(=O)N1C[C@@H](Oc2ccc(F)cc2)C[C@H]1C(=O)N1CCCN(C2CCC2)CC1 [Example 117, (2S,4S)-1-[2-(4-Cyclobutyl-[1,4]diazepane-1-carbonyl)-4-(4-fluoro-phenoxy)pyrrolidin-1-yl]-2-methyl-propan-1-one] | 796

Results, then the compound that gave them:

Ki [nM] | SMILES
> 10000 | CS(=O)(=O)N1C[C@@H](Oc2ccc(F)cc2)C[C@H]1C(=O)N1CCN(C2CCC2)CC1 [Example 138, (2S,4S)-2-(4-Cyclobutyl-piperazin-1-yl)-[4-(4-fluoro-phenoxy)-1-methanesulfonyl-pyrrolidin-2-yl]-methanone]
152 | CCC(=O)N1C[C@@H](Oc2ccc(F)cc2)C[C@H]1C(=O)N1CCCN(C2CCC2)CC1 [Example 116, (2S,4S)-1-[2-(4-Cyclobutyl-[1,4]diazepane-1-carbonyl)-4-(4-fluoro-phenoxy)-pyrrolidin-1-yl]-propan-1-one]
300 | CC(=O)N1C[C@@H](Oc2ccc(F)cc2)C[C@H]1C(=O)N1CCN(C2CCC2)CC1 [Example 119, (2S,4S)-1-[2-(4-Cyclobutyl-piperazine-1-carbonyl)-4-(4-fluoro-phenoxy)-pyrrolidin-1-yl]-ethanone]
523 | CN1C[C@@H](Oc2ccc(F)cc2)C[C@H]1C(=O)N1CCN(C2CCC2)CC1 [Example 107, (2S,4S)-1-Methyl-2-(4-cyclobutyl-piperazine-1-carbonyl)-4-(4-fluoro-phenoxy)-pyrrolidine]
